Experimental data as given in US11006631B2, “Substituted pyrimidinyloxy pyridine derivatives as herbicides” (FMC Corporation, priority 2015, dated 2021).

Tests used:
Type in all cases: in vivo
[1] = test system: ducksalad (Heteranthera limosa); assay: Test B flooded paddy test, ducksalad; conditions: Flood, 250 g ai/ha; scale of 0 to 100
In short: (§1)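 Paddy-water application at a 3 cm flood, young plants having two leaves. Water level maintained; greenhouse, 13–15 days; visual 0–100 control rating.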

[2] = test system: pigweed (Amaranthus retroflexus); assay: Test C postemergence, pigweed
From the text: (§2) Seeds of plant species selected from blackgrass (Alopecurus myosuroides), ryegrass, Italian (Italian ryegrass, Lolium multiflorum), wheat (winter wheat, Triticum aestivum), galium (catchweed bedstraw, Galium aparine), corn (Zea mays), crabgrass, large (large crabgrass, Digitaria sanguinalis), foxtail, giant (giant foxtail, Setaria faberii), lambsquarters (Chenopodium album), morningglory (Ipomoea coccinea), nutsedge, yellow (yellow nutsedge, Cyperus esculentus), pigweed (Amaranthus retroflexus), johnsongrass (Sorghum halepense), ragweed (common ragweed, Ambrosia elatior), soybean (Glycine max), barnyardgrass (Echinochloa crus-galli), oilseed rape (Brassica napus), waterhemp (common waterhemp, Amaranthus rudis), chickweed (common chickweed, Stellaria media), oat, wild (wild oat, Avena fatua), kochia (Kochia scoparia), and velvetleaf (Abutilon theophrasti) were planted in pots containing Redi-Earth® planting medium (Scotts Company, 14111 Scottslawn Road, Marysville, Ohio 43041) comprising spaghnum peat moss, vermiculite, wetting agent and starter nutrients and treated with postemergence applications of a test chemical formulated in a non-phytotoxic solvent mixture which included a surfactant. Plants ranged in height from 2 to 18 cm (1- to 4-leaf stage) for postemergence treatments. Treated plants and controls were maintained in a greenhouse for 13 to 15 days, after which time all species were compared to controls and visually evaluated. Plant response ratings, summarized in Table C, are based on a scale of 0 to 100 where 0 is no effect and 100 is complete control. A dash (-) response means no test result.

[3] = test system: barnyardgrass (Echinochloa crus-galli); assay: Test A preemergence, barnyardgrass; conditions: 0 to 100 scale
In short: (§3)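 Greenhouse pot test, loam + sand. Preemergence = soil spray at sowing; postemergence = foliar spray, 1–2 leaf stage, 2–10 cm tall. ~10 d, then visual injury vs untreated, 0–100.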

[4] = test system: morningglory (Ipomoea coccinea); assay: Test C postemergence, morningglory
From the text: as §2

[5] = test system: johnsongrass (Sorghum halepense); assay: Test C postemergence, johnsongrass
From the text: as §2

[6] = test system: blackgrass (Alopecurus myosuroides); assay: Test A postemergence, blackgrass; conditions: 0 to 100 scale
From the text: (§4) Seeds of plant species selected from bamyardgrass (Echinochloa crus-galli), kochia (Kochia scoparia), ragweed (common ragweed, Ambrosia elatior), ryegrass, Italian (Italian ryegrass, Lolium multiflorum), foxtail, giant (giant foxtail, Setaria faberii), pigweed (Amaranthus retroflexus), crabgrass, large (large crabgrass, Digitaria sanguinalis), momingglory (Ipomoea spp.), velvetleaf (Abutilon theophrasti), wheat (Triticum aestivum), and corn (Zea mays) were planted into a blend of loam soil and sand and treated preemergence with a directed soil spray using test chemicals formulated in a non-phytotoxic solvent mixture which included a surfactant. At the same time, plants selected from these crop and weed species and also blackgrass (Alopecurus myosuroides), and galium (catchweed bedstraw, Galium aparine) were planted in pots containing the same blend of loam soil and sand and treated with postemergence applications of test chemicals formulated in the same manner. Plants ranged in height from 2 to 10 cm and were in the one- to two-leaf stage for the postemergence treatment. Treated plants and untreated controls were maintained in a greenhouse for approximately 10 days, after which time all treated plants were compared to untreated controls and visually evaluated for injury. Plant response ratings, summarized in Table A, are based on a 0 to 100 scale where 0 is no effect and 100 is complete control. A dash (-) response means no test result.

[7] = test system: oat, wild (wild oat, Avena fatua); assay: Test C postemergence, oat, wild
From the text: as §2

[8] = test system: wheat (winter wheat, Triticum aestivum); assay: Test C postemergence, wheat
From the text: as §2, with “Plants ranged in height from 2 to 18 cm (1- to 4-leaf stage) for postemergence treatments.” left out, “Plant response ratings, summarized in Table C, are based on a scale of 0 to 100 where 0 is no effect and 100 is complete control. A dash (-) response means no test result.” left out

[9] = test system: crabgrass, large (large crabgrass, Digitaria sanguinalis); assay: Test C postemergence, crabgrass, large
From the text: as §2

[10] = test system: wheat (Triticum aestivum); assay: Test A postemergence, wheat; conditions: 0 to 100 scale
In short: as §3

[11] = test system: barnyardgrass (Echinochloa crus-galli); assay: Test B flooded paddy test, barnyardgrass; conditions: Flood, 250 g ai/ha; scale of 0 to 100
In short: as §1

[12] = test system: ragweed (common ragweed, Ambrosia elatior); assay: Test C postemergence, ragweed
From the text: as §2

[13] = test system: barnyardgrass (Echinochloa crus-galli); assay: Test A postemergence, barnyardgrass; conditions: 0 to 100 scale
In short: as §3

[14] = test system: foxtail, giant (giant foxtail, Setaria faberii); assay: Test A preemergence, foxtail, giant; conditions: 0 to 100 scale
In short: as §3

soybean (Glycine max) = assay: Test C postemergence, soybean
From the text: as §2

[15] = test system: nutsedge, yellow (yellow nutsedge, Cyperus esculentus); assay: Test C postemergence, nutsedge, yellow
From the text: as §2

[16] = test system: ragweed (common ragweed, Ambrosia elatior); assay: Test A postemergence, ragweed; conditions: 0 to 100 scale
From the text: as §4

kochia (Kochia scoparia) = assay: Test C postemergence, kochia
From the text: as §2

rice (Oryza sativa) = assay: Test B flooded paddy test, rice; conditions: Flood, 250 g ai/ha; scale of 0 to 100
In short: as §1

## FC(F)c1cc(-c2ncccc2Oc2ncc(Cl)cn2)on1 [Compound 5, 5-chloro-2-[[2-[3-(difluoromethyl)-5-isoxazolyl]-3-pyridinyl]oxy]pyrimidine]
[1]
  Plant response rating, Ducksalad: 75
[2]; 16 g ai/ha
  Plant response rating, Pigweed: 65
[2]; 31 g ai/ha
  Plant response rating, Pigweed: 75
[2]; 62 g ai/ha
  Plant response rating, Pigweed: 75
[2]; 125 g ai/ha
  Plant response rating, Pigweed: 85
[3]; 31 g ai/ha
  Plant response rating, Barnyardgrass: 0
[3]; 125 g ai/ha
  Plant response rating, Barnyardgrass: 20
[4]; 16 g ai/ha
  Plant response rating, Morningglory: 75
[4]; 31 g ai/ha
  Plant response rating, Morningglory: 65
[4]; 62 g ai/ha
  Plant response rating, Morningglory: 65
[4]; 125 g ai/ha
  Plant response rating, Morningglory: 85
[5]; 16 g ai/ha
  Plant response rating, Johnsongrass: 0
[5]; 31 g ai/ha
  Plant response rating, Johnsongrass: 0
[5]; 62 g ai/ha
  Plant response rating, Johnsongrass: 5
[5]; 125 g ai/ha
  Plant response rating, Johnsongrass: 10
[6]; 31 g ai/ha
  Plant response rating, Blackgrass: 0
[6]; 125 g ai/ha
  Plant response rating, Blackgrass: 20
[7]; 16 g ai/ha
  Plant response rating, Oat, Wild: 0
[7]; 31 g ai/ha
  Plant response rating, Oat, Wild: 0
[7]; 62 g ai/ha
  Plant response rating, Oat, Wild: 0
[7]; 125 g ai/ha
  Plant response rating, Oat, Wild: 5
[8]; 16 g ai/ha
  Plant response rating, Wheat: 5
[8]; 31 g ai/ha
  Plant response rating, Wheat: 5
[9]; 16 g ai/ha
  Plant response rating, Crabgrass, Large: 10
[9]; 31 g ai/ha
  Plant response rating, Crabgrass, Large: 15
[9]; 62 g ai/ha
  Plant response rating, Crabgrass, Large: 15
[9]; 125 g ai/ha
  Plant response rating, Crabgrass, Large: 15
[10]; 31 g ai/ha
  Plant response rating, Wheat: 0
[10]; 125 g ai/ha
  Plant response rating, Wheat: 10
[11]
  Plant response rating, Barnyardgrass: 0
[12]; 16 g ai/ha
  Plant response rating, Ragweed: 5
[12]; 31 g ai/ha
  Plant response rating, Ragweed: 40
[12]; 62 g ai/ha
  Plant response rating, Ragweed: 35
[12]; 125 g ai/ha
  Plant response rating, Ragweed: 65
[13]; 31 g ai/ha
  Plant response rating, Barnyardgrass: 0
[13]; 125 g ai/ha
  Plant response rating, Barnyardgrass: 20
[14]; 31 g ai/ha
  Plant response rating, Foxtail, Giant: 10
[14]; 125 g ai/ha
  Plant response rating, Foxtail, Giant: 80
Soybean (Glycine max); 16 g ai/ha
  Plant response rating, Soybean: 60
Soybean (Glycine max); 31 g ai/ha
  Plant response rating, Soybean: 70
Soybean (Glycine max); 62 g ai/ha
  Plant response rating, Soybean: 40
Soybean (Glycine max); 125 g ai/ha
  Plant response rating, Soybean: 90
[15]; 16 g ai/ha
  Plant response rating, Nutsedge, Yellow: 0
[15]; 31 g ai/ha
  Plant response rating, Nutsedge, Yellow: 10
[15]; 62 g ai/ha
  Plant response rating, Nutsedge, Yellow: 5
[15]; 125 g ai/ha
  Plant response rating, Nutsedge, Yellow: 5
[16]; 31 g ai/ha
  Plant response rating, Ragweed: 20
[16]; 125 g ai/ha
  Plant response rating, Ragweed: 60
Kochia (Kochia scoparia); 16 g ai/ha
  Plant response rating, Kochia: 90
Kochia (Kochia scoparia); 31 g ai/ha
  Plant response rating, Kochia: 90
Kochia (Kochia scoparia); 62 g ai/ha
  Plant response rating, Kochia: 90
Kochia (Kochia scoparia); 125 g ai/ha
  Plant response rating, Kochia: 90
Rice (Oryza sativa)
  Plant response rating, Rice: 0
